Assay results published in ChEMBL document CHEMBL1133764, “Synthesis and cytokine modulation properties of pyrrolo[2, 3-d]-4-pyrimidone nucleosides” (2000).

Columns and labels:
T-cell line [1] = assay: Effect (10 uM) on PMA/ION-stimulated T-cell expression of the type 2 cytokine IL-4, which was determined in cell free supernatants by ELISA; assay type: functional, cell-based; settings: Homo sapiens
T-cell line [2] = assay: Effect (10 uM) on PMA/ION-stimulated T-cell expression of the type 1 cytokine IFN gamma, which was determined in cell free supernatants by ELISA; assay type: functional, cell-based; settings: Homo sapiens
T-cell line [3] = assay: Effect on PMA/ION-stimulated T-cell expression of the type 1 cytokine, IFNgamma was determined in cell free supernatants by ELISA; assay type: functional, cell-based; settings: Homo sapiens
T-cell line [4] = assay: Effect on PMA/ION-stimulated T-cell expression of the type 1 cytokine,IL-2 was determined in cell free supernatants by ELISA; assay type: functional, cell-based; settings: Homo sapiens
T-cell line [5] = assay: Effect on PMA/ION-stimulated T-cell expression of the type 1 cytokine,TNF-alpha was determined in cell free supernatants by ELISA; assay type: functional, cell-based; settings: Homo sapiens
T-cell line [6] = assay: Effect on PMA/ION-stimulated T-cell expression of the type 1 cytokine,IL-5 was determined in cell free supernatants by ELISA; assay type: functional, cell-based; settings: Homo sapiens
T-cell line [7] = assay: Effect at 10 uM on PMA/ION-stimulated T-cell expression of the type 2 cytokine IL-4, determined in cell free supernatants by ELISA; assay type: functional, cell-based; settings: Homo sapiens
T-cell line [8] = assay: Effect (10 uM) on PMA/ION-stimulated T-cell expression of the type 2 cytokine IL-5, which was determined in cell free supernatants by ELISA; assay type: functional, cell-based; settings: Homo sapiens
T-cell line [9] = assay: Effect (10 uM) on PMA/ION-stimulated T-cell expression of the type 1 cytokine TNF-alpha, which was determined in cell free supernatants by ELISA; assay type: functional, cell-based; settings: Homo sapiens
T-cell line [10] = assay: Effect (10 uM) on PMA/ION-stimulated T-cell expression of the type 1 cytokine IL-2, which was determined in cell free supernatants by ELISA; assay type: functional, cell-based; settings: Homo sapiens
T-cell line [11] = assay: Effect (10 uM) on PMA/ION-stimulated T-cell expression of the type 1 cytokine IFNgamma, which was determined in cell free supernatants by ELISA; assay type: functional, cell-based; settings: Homo sapiens
T-cell line [12] = assay: Effect (10 uM) on PMA/ION-stimulated T-cell expression of the type 1 cytokine, IL-5 was determined in cell free supernatants by ELISA; assay type: functional, cell-based; settings: Homo sapiens
T-cell line [13] = assay: Effect (10 uM) on PMA/ION-stimulated T-cell expression of the type 1 cytokine,IL-2 was determined in cell free supernatants by ELISA; assay type: functional, cell-based; settings: Homo sapiens
T-cell line [14] = assay: Effect (10 uM) on PMA/ION-stimulated T-cell expression of the type 1 cytokine,TNF-alpha was determined in cell free supernatants by ELISA; assay type: functional, cell-based; settings: Homo sapiens
T-cell line [15] = assay: (§1) Effect (10 uM) on PMA/ION-stimulated T-cell expression of the type 1 cytokine, IFNgamma was determined in cell free supernatants by ELISA; assay type: functional, cell-based; settings: Homo sapiens
T-cell line [16] = assay: Effect at 10 uM on PMA/ION-stimulated T-cell expression of the type 1 cytokine IFNgamma, determined in cell free supernatants by ELISA; assay type: functional, cell-based; settings: Homo sapiens
T-cell line [17] = assay: as §1; assay type: functional, Homo sapiens
T-cell line [18] = assay: Effect (10 uM) on PMA/ION-stimulated T-cell expression of the type 2 cytokine, IL-4 was determined in cell free supernatants by ELISA; assay type: functional, cell-based; settings: Homo sapiens

| Compound | Concentration (T-cell line [1]) [pg/mL] | Concentration (T-cell line [2]) [pg/mL] | Concentration (T-cell line [7]) [pg/mL] | Concentration (T-cell line [16]) [pg/mL] | also measured |
| --- | --- | --- | --- | --- | --- |
| N=C(N)c1cn(C2CCC(CO)O2)c2ncnc(O)c12 (single isomer, unassigned; (+)) | 234 | 13300 | – | – | – |
| NC(=S)c1cn(C2O[C@H](CO)[C@@H](O)[C@H]2O)c2ncnc(O)c12 (stereo not given in full) | – | – | 176 | – | Concentration (T-cell line [3]): 7480 pg/mL; Concentration (T-cell line [4]): 23000 pg/mL; Concentration (T-cell line [5]): 2220 pg/mL; Concentration (T-cell line [6]): 59 pg/mL |
| N/C(=N\O)c1cn([C@@H]2O[C@H](CO)[C@@H](O)[C@H]2O)c2nc[nH]c(=O)c12 | 236 | – | – | – | Concentration (T-cell line [8]): 73 pg/mL; Concentration (T-cell line [9]): 1590 pg/mL; Concentration (T-cell line [10]): 18000 pg/mL; Concentration (T-cell line [11]): 7270 pg/mL |
| NC(=O)c1cn(C2O[C@H](CO)[C@@H](O)[C@H]2O)c2ncnc(O)c12 (single isomer, unassigned; (+)) | – | – | 183 | – | Concentration (T-cell line [12]): 67 pg/mL; Concentration (T-cell line [13]): 24400 pg/mL; Concentration (T-cell line [14]): 2170 pg/mL; Concentration (T-cell line [15]): 9140 pg/mL |
| C[C@H](O)[C@H]1OC(n2cc(C#N)c3c(O)ncnc32)[C@H](O)[C@@H]1O (single isomer, unassigned; (+)) | – | – | 146 | 10900 | – |
| C[C@@H](O)[C@H]1OC(n2cc(C#N)c3c(O)ncnc32)[C@H](O)[C@@H]1O (stereo not given in full) | – | – | 160 | 13300 | – |
| N#CC1=CN([C@H]2C[C@H](O)[C@@H](CO)O2)C2=NC=NC(=O)C12 (single isomer, unassigned; (+)) | – | – | 194 | 11900 | – |
| C[C@]1(CO)OC(n2cc(C(=N)N)c3c(O)ncnc32)[C@H](O)[C@@H]1O (single isomer, unassigned; (+)) | 144 | 9550 | – | – | – |
| N=C(N)c1cn([C@@H]2O[C@H](CO)[C@@H](O)[C@@H]2O)c2nc[nH]c(=O)c12 | – | – | 131 | 7790 | – |
| N/C(=N\O)c1cn([C@@H]2O[C@H](CO)[C@@H](O)[C@@H]2O)c2nc[nH]c(=O)c12 | 132 | 10400 | – | – | – |
| C[C@@H](O)[C@H]1OC(n2cc(C(=N)NO)c3c(O)ncnc32)[C@H](O)[C@@H]1O (stereo not given in full) | 186 | 12300 | – | – | – |
| C[C@H]1OC(n2cc(C(=N)NO)c3c(O)ncnc32)[C@H](O)[C@@H]1O (single isomer, unassigned; (+)) | 149 | 10600 | – | – | – |
| N=C(NN)c1cn([C@@H]2O[C@H](CO)[C@@H](O)[C@H]2O)c2nc[nH]c(=O)c12 | – | – | 207 | 11900 | – |
| C[C@]1(CO)OC(n2cc(C#N)c3c(O)ncnc32)[C@H](O)[C@@H]1O (single isomer, unassigned; (+)) | – | – | 147 | 9030 | – |
| C[C@H]1OC(n2cc(C#N)c3c(O)ncnc32)[C@H](O)[C@@H]1O (single isomer, unassigned; (+)) | – | – | 147 | 9140 | – |
| C[C@H](O)[C@H]1OC(n2cc(C(=N)NO)c3c(O)ncnc32)[C@H](O)[C@@H]1O (single isomer, unassigned; (+)) | 162 | 11400 | – | – | – |
| N=C(N)c1cn([C@@H]2O[C@H](CO)[C@@H](O)[C@H]2O)c2nc[nH]c(=O)c12 | – | – | < 557 | – | Concentration (T-cell line [12]): < 127 pg/mL; Concentration (T-cell line [13]): < 12700 pg/mL; IFN gamma concentration (T-cell line [17]): <5919 pg/mL; Concentration (T-cell line [14]): < 968 pg/mL |
| CCCCCCCCCCCCC(=O)O[C@@H]1[C@@H](C)[C@@]2(O)[C@@H](C=C(CO)C[C@]3(O)C(=O)C(C)=C[C@@H]23)[C@@H]2C(C)(C)[C@]12OC(C)=O.C[C@H](CCC(=O)O)C[C@H](C)C[C@H](C)/C(O)=C/C(=O)[C@H](C)C[C@H](C)C/C=C/[C@@H](C)[C@@H](O)[C@@H](C)[C@@H](O)C[C@@H]1CC[C@@](C)([C@H]2CC[C@@](C)([C@@H](C)O)O2)O1 | – | – | – | 10400 | Concentration (T-cell line [3]): 10400 pg/mL; Concentration (T-cell line [4]): 27700 pg/mL; Concentration (T-cell line [5]): 2150 pg/mL; Concentration (T-cell line [6]): 93 pg/mL; Concentration (T-cell line [18]): 162 pg/mL |
| N=C(N)C1=CN([C@H]2C[C@H](O)[C@@H](CO)O2)C2=NC=NC(=O)C12 (single isomer, unassigned; (+)) | 258 | 14700 | – | – | – |
| N/C(=N\O)c1cn(C2CCC(CO)O2)c2ncnc(O)c12 (single isomer, unassigned; (+)) | 152 | 11200 | – | – | – |
| N/C(=N\O)c1cn([C@H]2O[C@@H](CO)[C@H](O)[C@@H]2O)c2nc[nH]c(=O)c12 | 142 | 9660 | – | – | – |
| C[C@H]1OC(n2cc(C(=N)N)c3c(O)ncnc32)[C@H](O)[C@@H]1O (single isomer, unassigned; (+)) | – | – | 152 | 1310 | – |
| C[C@@H](O)[C@H]1OC(n2cc(C(=N)N)c3c(O)ncnc32)[C@H](O)[C@@H]1O (single isomer, unassigned; (+)) | – | – | 159 | 12100 | – |
| NCc1cn([C@@H]2O[C@H](CO)[C@@H](O)[C@@H]2O)c2nc[nH]c(=O)c12 | – | – | 142 | 10800 | – |
| N=C(NN)c1cn([C@@H]2O[C@H](CO)[C@@H](O)[C@@H]2O)c2nc[nH]c(=O)c12 | – | – | 117 | 9860 | – |
| NCc1cn([C@@H]2O[C@H](CO)[C@@H](O)[C@H]2O)c2nc[nH]c(=O)c12 | – | – | 125 | 9340 | – |
| C[C@H](O)[C@H]1OC(n2cc(C(=N)N)c3c(O)ncnc32)[C@H](O)[C@@H]1O (single isomer, unassigned; (+)) | – | – | 146 | 10700 | – |
